In publication PMC10671693, “Design, Synthesis, and Antitumor Activity Evaluation of Proteolysis-Targeting Chimeras as Degraders of Extracellular Signal-Regulated Kinases 1/2” (International Journal of Molecular Sciences, 2023):
“Also recorded” adds a separate entry of the source. Where two headings read alike, the source gives them in different places.

Assays:
[1] = test system: ERK1; settings: cited from earlier work
[2] = test system: ERK2; settings: cited from earlier work
[3] = test system: HCT116 mouse xenografts; parameters: method as in PMID 27227380; settings: cited from earlier work
[4] = test system: HCT116 tumor; test: HCT116 subcutaneous xenograft model in nude mice; format: in vivo
Experimental: Male BALB/c nude mice of around 8 weeks old were purchased from Charles River (Beijing, China). Nude mice were raised in SPF-grade animal rooms and had access to water and food ad libitum. HCT116 colorectal cancer cells were grown in DMEM supplemented with 10% fetal calf serum and 1% penicillin/streptomycin under standard cell culture conditions. HCT116 xenografts were prepared by subcutaneously injecting 5× 10^6 cells suspended in PBS into the right flank of each male BALB/c nude mouse. Tumor growth was monitored via caliper measurement, and volume was calculated using the following equation: 0.5 × max (length/width) × min (length/width) × min (length/width). When the tumors reached an average of approximately 100 mm^3, the mice were randomized into groups of five. The mice were injected intraperitoneally once a day at doses of 6, 12, 25 mg/kg compound B1-10J and 25 mg/kg 5-FU. Body weights and tumor volumes were measured every 2–3 days. All studies were appropriately statistically powered.

[5] = test system: ERK1/2; test: Western blot ERK1/2 protein degradation assay in A375 cells; format: cell-based, human
Experimental: (§1) A375, HCT116, Calu-6, and B16-F10 cells were purchased from American Type Culture Collection (ATCC) and cultured in DMEM high glucose media (SH30022.01, Cytiva, Shanghai, China) supplemented with 10% fetal bovine serum (10099-144, Gibco, Carlsbad, CA, USA) and 1% penicillin/streptomycin (Solarbio, Beijing, China) in an incubator at 37 °C with 5% CO2.
Cells were cultured under the indicated conditions as described in “Cell culture”. Cells were seeded in 6-well plates (3516, Corning, New York, NY, USA). Compounds were dissolved in DMSO for storage (10 mM). Following compound treatment, cells were washed with PBS, scraped from the plate, and lysed using cell lysis buffer (Applygen, Beijing, China). After the protein in the cell lysate was quantified via the BCA quantification method, the samples were placed in a metal bath at 100 °C and heated for 5 min. Cell lysates were separated using a 10% SDS–PAGE gel and transferred to PVDF membranes (Merck Millipore, Burlington, MA, USA). The PVDF membrane was blocked with 5% nonfat dry milk in TBST for one hour. The PVDF membrane was transferred to the antibody diluent and incubated overnight at 4 °C. PVDF membranes were washed three times with TBST for 5 min each and then incubated with the appropriate HRP-conjugated secondary antibody for 1 h at room temperature. After washing three more times with TBST, the PVDF membrane was stained with a hypersensitive ECL chemiluminescence reagent (Biodragon, Beijing, China) and then imaged with Tanon 5200. Grayscale quantitative analysis was performed using ImageJ software. Statistical analysis was performed using GraphPad Prism 8. DC50 and Dmax values were fitted using a four-parameter [inhibitor] versus response and reported directly from the Prism output. Mean ± SD and unpaired t tests were performed in GraphPad Prism.

[6] = test system: ERK1/2; test: Western blot ERK1/2 protein degradation assay in B16-F10 cells; format: cell-based; settings: B16-F10 murine melanoma cells, 48 h
Experimental: (§2) A375, HCT116, Calu-6, and B16-F10 cells were purchased from American Type Culture Collection (ATCC) and cultured in DMEM high glucose media (SH30022.01, Cytiva, Shanghai, China) supplemented with 10% fetal bovine serum (10099-144, Gibco, Carlsbad, CA, USA) and 1% penicillin/streptomycin (Solarbio, Beijing, China) in an incubator at 37 °C with 5% CO2. Cells were cultured under the indicated conditions as described in “Cell culture”. Cells were seeded in 6-well plates (3516, Corning, New York, NY, USA). Compounds were dissolved in DMSO for storage (10 mM). Following compound treatment, cells were washed with PBS, scraped from the plate, and lysed using cell lysis buffer (Applygen, Beijing, China). After the protein in the cell lysate was quantified via the BCA quantification method, the samples were placed in a metal bath at 100 °C and heated for 5 min. Cell lysates were separated using a 10% SDS–PAGE gel and transferred to PVDF membranes (Merck Millipore, Burlington, MA, USA). The PVDF membrane was blocked with 5% nonfat dry milk in TBST for one hour. The PVDF membrane was transferred to the antibody diluent and incubated overnight at 4 °C. PVDF membranes were washed three times with TBST for 5 min each and then incubated with the appropriate HRP-conjugated secondary antibody for 1 h at room temperature. […] Grayscale quantitative analysis was performed using ImageJ software. […]

[7] = test system: ERK1/2; test: Western blot ERK1/2 protein degradation assay in HCT116 cells; format: cell-based, human
Experimental: A375, HCT116, Calu-6, and B16-F10 cells were purchased from American Type Culture Collection (ATCC) and cultured in DMEM high glucose media (SH30022.01, Cytiva, Shanghai, China) supplemented with 10% fetal bovine serum (10099-144, Gibco, Carlsbad, CA, USA) and 1% penicillin/streptomycin (Solarbio, Beijing, China) in an incubator at 37 °C with 5% CO2. Cells were cultured under the indicated conditions as described in “Cell culture”. Cells were seeded in 6-well plates (3516, Corning, New York, NY, USA). Compounds were dissolved in DMSO for storage (10 mM). Following compound treatment, cells were washed with PBS, scraped from the plate, and lysed using cell lysis buffer (Applygen, Beijing, China). After the protein in the cell lysate was quantified via the BCA quantification method, the samples were placed in a metal bath at 100 °C and heated for 5 min. Cell lysates were separated using a 10% SDS–PAGE gel and transferred to PVDF membranes (Merck Millipore, Burlington, MA, USA). The PVDF membrane was blocked with 5% nonfat dry milk in TBST for one hour. The PVDF membrane was transferred to the antibody diluent and incubated overnight at 4 °C. PVDF membranes were washed three times with TBST for 5 min each and then incubated with the appropriate HRP-conjugated secondary antibody for 1 h at room temperature. After washing three more times with TBST, the PVDF membrane was stained with a hypersensitive ECL chemiluminescence reagent (Biodragon, Beijing, China) and then imaged with Tanon 5200. Grayscale quantitative analysis was performed using ImageJ software. Statistical analysis was performed using GraphPad Prism 8. DC50 and Dmax values were fitted using a four-parameter [inhibitor] versus response and reported directly from the Prism output. Mean ± SD and unpaired t tests were performed in GraphPad Prism.

[8] = test system: A375 cells; test: Transwell migration assay; format: cell-based, human; settings: 24 h
Experimental: A total of 100 µL of FBS-free DMEM high-glucose medium containing 20,000 cells was added to the upper layer of the Transwell chamber of a 24-well plate (3422, Corning, New York, NY, USA), and a complete medium containing 10% FBS was added to the lower layer. The experimental group and the control group were established. The control group used DMSO (DMSO concentration in the culture medium was no more than 0.5% in each well), and the specified concentration of compounds was added to the medium of the experimental group. The cells were then placed in an incubator for 24 h. The cells were washed with PBS, the cells in the upper layer of the Transwell chamber were wiped off with a cotton swab, and the cells were fixed with cold methanol for 15 min. The cells were stained with crystal violet reagent and observed and photographed under a microscope. Then, crystal violet was washed with 33% acetic acid and the absorbance was measured at a wavelength of 590 nm. Graphing with GraphPad Prism 8 after counting cells was performed.

[9] = test system: HCT116 cells; test: Cell proliferation (CCK8) assay, HCT116; format: cell-based, human; settings: HCT116, 72 h, read-out: IC50 (growth inhibition, cytotoxicity)
Experimental: as §1
(§3) A 96-well plate (3599, Corning, New York, NY, USA) was inoculated with 100 μL of complete medium containing 10,000 cells, and the experimental, control, and blank groups were established. Three parallel wells were used per concentration. After 10 h, the media from the experimental and control groups were replaced with a compound containing the indicated concentration of the complete medium. Cells were incubated for 72 h before 10 μL of CCK8 reagent (CA1210, Solarbio, Beijing, China) was added to each well and incubated for 1 h. Using a microplate reader (Tecan, Mannendorf, Switzerland), the absorbance at 450 nm was measured. The IC50 values were determined using GraphPad Prism 8 and nonlinear regression curve fitting.

[10] = test system: ERK1/2; test: Western blot ERK1/2 protein degradation assay in Calu-6 cells; format: cell-based, human; settings: 48 h, Western blot and grayscale quantification
Experimental: as §2

[11] = test system: A375 cells; test: Cell proliferation (CCK8) assay, A375; format: cell-based; settings: Homo sapiens, A-375, A375, 72 h, read-out: IC50 (growth inhibition, cytotoxicity)
Experimental: as §1, §3

[12] = test system: Calu-6 cells; test: Cell proliferation (CCK8) assay, Calu-6; format: cell-based; settings: Homo sapiens, Calu-6, 72 h, read-out: IC50 (growth inhibition, cytotoxicity)
Experimental: as §1, §3

[13] = test system: BRAF mutant and RAS mutant cell lines; parameters: method as in PMID 29247021, PMID 28939558; settings: preclinical studies; cited from earlier work
[14] = test system: tumor; parameters: method as in PMID 28376306; settings: daily dose of 50 mg/kg; cited from earlier work

Cn1nccc1Nc1nccc(-c2ccn([C@H](CO)c3ccc(Cl)c(F)c3)c(=O)c2)n1 [GDC-0994, (S)-1-(1-(4-Chloro-3-fluorophenyl)-2-hydroxyethyl)-4-(2-((1-methyl-1H-pyrazol-5-yl)amino)pyrimidin-4-yl)pyridin-2(1H)-one]
IC50 [1]: […] | IC50 [2]: […] | antitumor activity [3]: potent antitumor activity

O=c1[nH]cc(F)c(=O)[nH]1 [Compound 5-FU, 5-fluorouracil, reference compound]
body weight / tolerability ([4]; mouse, in vivo): trend of weight loss

Cc1cccc(CN2C(=O)c3cc(-c4nc(Nc5ccnc(C#CCCN(C)CCCCCCCCCCNc6cccc7c6C(=O)N(C6CCC(=O)NC6=O)C7=O)c5)ncc4C)cn3C[C@H]2C)n1 (some centres unmarked) [Compound B1-10J]
time after which ERK1/2 protein level returned to normal ([5]; 1 μM): > 48 h | time at which ERK1/2 degradation nearly reached its highest level ([5]; 1 μM): 24 h | time at which ERK1/2 protein began to degrade ([5]; 1 μM): 6 h | ERK1/2 degradation with/without MG132 and MLN4924 ([5]; 24 h, B1-10J 1 μM, MG132 1 μM, MLN4924 1 μM): only degraded by B1-10J alone | concentration dependence of ERK1/2 degradation (hook effect) ([5]; 24 h, large range of concentrations): typical “hook” effect | ERK1/2 degradative activity (in words) ([5]; 48 h, Western blot): slightly increased DC50; also recorded: effective ERK1/2 degraders | DC50 ([5]; 48 h, Western blotting and grayscale quantification): 498 ± 369 nM | ERK1/2 degradative activity (in words) [6]: weak degradative activity | duration of ERK1/2 degradation ([7]; 1 μM): up to 72 h | time at which ERK1/2 degradation nearly reached its highest level ([7]; 1 μM): 24 h | time at which ERK1/2 protein began to degrade ([7]; 1 μM): 6 h | DC50 ([7]; 48 h, Western blot and grayscale quantification): 102 nM | decrease of migration rate ([8]; 1 μM, crystal violet absorbance 590 nm): more than 50% | cell migration (in words) ([8]; Transwell chamber): dose-dependently inhibited; also recorded: decreased markedly; also recorded: significantly prevented the migration | IC50 [9]: 2100 nM | IC50 ([9]; Homo sapiens, HCT-116, 72 h): 2200 nM | DC50 [10]: 85 nM | tumor growth inhibition ([4]; 25 mg/kg daily, intraperitoneal, up until day 19): approximately 50% | tumor growth inhibition, dose dependence ([4]; 6, 12, 25 mg/kg Q.D., intraperitoneal): dose-dependent manner | antitumor effect (in words) ([4]; daily dose of 25 mg/kg, intraperitoneal, 25 mg/kg): more effective at a 25 mg/kg dose than 5-FU | body weight / tolerability ([4]; nude mice with HCT116 xenograft, during treatment): well-tolerated | IC50 [11]: > 30000 nM | IC50 [12]: 15900 nM

CC(C)Nc1cc(-c2c[nH]c(C(=O)N[C@H](CO)c3cccc(Cl)c3)c2)c(Cl)cn1 [BVD-523]
Ki [1]: < 0.3 nM | anticancer activity [13]: demonstrated anticancer activity | Ki [2]: 0.04 nM

Cc1cccc(CN2C(=O)c3cc(-c4nc(Nc5ccnn5C)ncc4C)cn3C[C@H]2C)n1 [compound 35]
antitumor effect [14]: significant tumor regression | IC50 [2]: < 0.3 nM
